Measurements as given in a melting point compilation (Tetko et al.; mined from patent text by program, amines drawn as free bases though some values may be those of a salt).

With `Cc1cc(C2=NOC(c3cc(Cl)cc(Cl)c3)(C(F)(F)F)C2)ccc1C(=O)Cl` (centres undefined) as the compound, how does the melting point read?
Its melting point is 140 to 143 °C.

With `COCCOc1cc2ncnc(NC3=CC(=O)C(NCc4cccc(C)c4)=CC3=O)c2cc1OC` as the compound, how does the melting point read?
Its melting point is 241 to 242 °C.

With `CCOC1=NS(=O)(=O)C(C#N)=C1OCC` as the compound, how does the melting point read?
Its melting point is 147 to 148 °C.

With `COc1ccc(C=Cc2nc(CCl)co2)cc1` as the compound, how does the melting point read?
Its melting point is 148 to 151 °C.

With `CCN(CC)C(=O)C(C)(C)C(=O)O` as the compound, how does the melting point read?
The melting point was 110 to 112 °C.

Which melting point does the source give for `Cc1cc(Oc2c(Cl)cc(C(F)(F)F)cc2Cl)nn1C(=O)NC1CCCC1` here?
The melting point was 90 to 92 °C.

Which melting point does the source give for `CCc1nc2c(N)nc(C)c(C)c2n1NC1CCCCC1` here?
The melting point was 190 to 192 °C.

For `O=C1CCN(c2ccc(CC3SC(=O)NC3=O)cc2F)CC1` (centres undefined), which melting point is on record?
Its melting point is 129 to 130 °C.

Which melting point does the source give for `O=C1CC(O)c2ccc(F)cc21` (centres undefined) here?
The melting point was 73 to 76 °C.

For `CCOC(=O)N1CCC(Nc2ccc(F)cc2[N+](=O)[O-])CC1`, which melting point is on record?
The melting point was 115 to 116 °C.

Which melting point does the source give for `CCCc1c(OCCCOc2ccc(C(=O)C(=O)O)cc2)ccc(C(C)=O)c1OC` here?
Its melting point is 94 to 96 °C.

For `Cc1nnn(-c2ccc(F)cc2)c1CCl`, which melting point is on record?
Its melting point is 70 to 71 °C.

For `CC1(C)CC2(CC(C)(C)N1c1nc(Cl)nc(N3CCOCC3)n1)OCCO2`, which melting point is on record?
Its melting point is 154 to 156 °C.

Which melting point does the source give for `CCOC(=O)c1c(Nc2cc(F)ccc2[N+](=O)[O-])sc2cc(C)ccc12` here?
Its melting point is 147 to 149 °C.

For `COc1ccc(C=CC(=O)c2ccc(O)c(CC(=O)O)c2)cc1`, which melting point is on record?
Its melting point is 247 °C.

For `CSC1CC(=O)N1Cc1ccccc1` (centres undefined), which melting point is on record?
The melting point was 26 to 28 °C.

For `COc1ccc(-c2ccnc3c(C(=O)c4cccs4)cnn23)cc1NC(=O)CC(C)C`, which melting point is on record?
Its melting point is 192 to 194 °C.

Which melting point does the source give for `COC(=O)Cc1ccc(OCCNC(=O)C2Cc3ccccc3N2S(=O)(=O)c2ccc(-c3cc(C)ccc3F)cc2)cc1` (centres undefined) here?
The melting point was 55 to 58 °C.

Which melting point does the source give for `CCOc1ccc(S(=O)(=O)NCc2ccccn2)cc1-c1nc2cccnc2c(=O)[nH]1` here?
Its melting point is 230 to 231 °C.

With `O=C(Nc1ccc2c(c1)COCC2)OCc1ccccc1` as the compound, how does the melting point read?
Its melting point is 94 to 95 °C.

Which melting point does the source give for `Cn1nc(C=O)cc1C(C)(C)CNC(=O)c1ccccc1` here?
Its melting point is 150 to 151 °C.

With `O=S1(=O)Oc2ccccc2Nc2ncccc21` as the compound, how does the melting point read?
Its melting point is 208 to 209 °C.

For `O=C(Cc1ccccc1)NC1C(=O)N2C1SC1(CCN(c3ccccc3)CC1)C2C(=O)OCc1ccccc1` (centres undefined), which melting point is on record?
The melting point was 120 to 121 °C.

For `COC(=O)c1cc(C)c(NC(=O)c2cc(C(F)(F)F)nn2-c2ncccc2Cl)c(C(=O)NC(C)C)c1`, which melting point is on record?
The melting point was 199 to 200 °C.

For `CC(CNCc1ccccc1O)NCc1ccccc1O` (centres undefined), which melting point is on record?
Its melting point is 57 to 58 °C.

Which melting point does the source give for `COC(=O)c1cc(NC(=O)Nc2ccc([N+](=O)[O-])cc2)cc(C(=O)OC)c1` here?
Its melting point is 193 to 195 °C.

For `CC1(C)CCn2c(nc(-c3ccncn3)cc2=O)N1CC(=O)c1ccccc1`, which melting point is on record?
The melting point was 203 to 205 °C.

With `CC(=O)OC1CSC(Oc2cncc(-c3c(C)noc3C)c2)C(OC(C)=O)C1OC(C)=O` (centres undefined) as the compound, how does the melting point read?
The melting point was 129 to 131 °C.

For `COC(=O)c1cc(OCc2nc(-c3ccccc3)oc2C)no1`, which melting point is on record?
Its melting point is 123 to 124 °C.

With `CC(C)(C)OC(=O)c1ccccc1CCc1ccccc1N` as the compound, how does the melting point read?
Its melting point is 58 to 59 °C.

With `O=c1c2c[nH]c3c(c-2nn1-c1ccccc1)COCC3` as the compound, how does the melting point read?
The melting point was 304 to 306 °C.

For `COc1ccc(-c2[nH]nc3c2C(=O)c2c(NC(=O)Cc4ccc(N=[N+]=[N-])cc4)cccc2-3)cc1`, which melting point is on record?
The melting point was greater than 300 °C.

For `O=C(O)Cn1cc(Cc2nc3cc(C(F)(F)F)ccc3s2)c2ccccc21`, which melting point is on record?
The melting point was 233 to 234 °C.

For `CON1CCC(C#N)(OC(=O)Cc2c(C)cc(C)cc2C)CC1`, which melting point is on record?
Its melting point is 75 to 78 °C.

Which melting point does the source give for `CC(C)Cn1c(-c2c(F)cccc2F)cnc(-n2cccn2)c1=O` here?
Its melting point is 91 to 92 °C.

For `COC(=O)[C@H](C)OC(=O)c1cc(-n2c(=O)cc(C(F)(F)F)n(C)c2=O)ccc1Cl`, which melting point is on record?
Its melting point is 59 to 60 °C.

For `CC(=O)OCC1CC(Nc2cc(Cl)c(Cl)cc2[N+](=O)[O-])C(OC(C)=O)C1OC(C)=O` (centres undefined), which melting point is on record?
The melting point was 128 to 130 °C.

Which melting point does the source give for `Cc1nc(N2C[C@H](C)N(Cc3ccc(F)cc3)C2=O)sc1C(=O)NCc1ccc(F)c(F)c1` here?
The melting point was 62 to 65 °C.

Which melting point does the source give for `COc1cc(-c2cc(=O)c3ccc(OCCCBr)cc3o2)cc(OC)c1OC` here?
The melting point was 156 to 157 °C.

With `CS(=O)(=O)c1ccc(Oc2cc(OCc3ccccc3)c3[nH]c(C(=O)O)cc3c2)cc1` as the compound, how does the melting point read?
The melting point was 232 to 233 °C.

Which melting point does the source give for `Cc1nc(-c2cnc3[nH]cc(C(=O)N[C@@H](C(=O)N4CC(C#N)C4)C4CC4)c3n2)cn1-c1ccccc1` here?
The melting point was 175 to 179 °C.

With `O=C(O)c1cc(Br)cnc1O` as the compound, how does the melting point read?
The melting point was 245 °C.

With `OCC1CCc2[nH]c3ccc(F)cc3c2C1` (centres undefined) as the compound, how does the melting point read?
The melting point was 107 to 109 °C.

With `CCCCCCCCCCCCCCOc1cc(OCCCCCCc2cccc(OCc3ccccc3)c2OCc2ccccc2)cc(C(=O)O)c1` as the compound, how does the melting point read?
Its melting point is 75 to 77 °C.

Which melting point does the source give for `N#Cc1cccc(-c2nc(Nc3cnccn3)sc2-c2ccncn2)c1` here?
Its melting point is greater than 280 °C.

With `Cc1nc(C(O)c2ccc(Cl)cc2)sc1C` (centres undefined) as the compound, how does the melting point read?
Its melting point is 107 °C.

With `FC(F)(F)c1ccc(COc2ncncc2Oc2ccccc2)cc1` as the compound, how does the melting point read?
Its melting point is 56 to 57 °C.

With `NC(=O)c1nn(-c2ccc(S(N)(=O)=O)cc2)c2ccncc12` as the compound, how does the melting point read?
The melting point was 301 to 302 °C.

Which melting point does the source give for `O=C1N=C(Cc2c[nH]c3ccccc23)C(CCc2cc(C(F)(F)F)cc(C(F)(F)F)c2)O1` (centres undefined) here?
The melting point was 178 to 180 °C.
